What was measured:
[1] = biological target: T1, GST-tagged KRAS-G12D (2-169) (Homo sapiens, UniProt P01116, G12D); test: Nucleotide exchange assay (NEA), SOS-mediated, HTRF, KRAS G12D; type: biochemical; settings: IC50 extracted at 30 min
T1 construct: GST-tagged KRAS-G12D (2-169, Reaction Biology, MSC-11-539); purchased Reaction Biology MSC-11-539 (KRAS G12D); MSC-11-502 (SOS1cat)
Source text: This activity is tightly regulated by GTPase activating proteins (GAPs) and guanine nucleotide exchange factors (GEFs). GEFs, such as SOS1/2, activate Ras proteins by exchanging GDP for GTP, thus returning Ras to its active conformation (Simanshu, Nissley, & McCormick, 2017). […] Homogenous time resolved fluorescence (HTRF) was used to detect SOS-mediated binding of a fluorescent GTP analog, GTP-DY-647P1 (Jena Biosciences NU-820-647P1) to GST-tagged KRAS-G12D (2-169, Reaction Biology, MSC-11-539) or to GST-tagged KRAS-G12V (2-169, Reaction Biology, MSC-11-540).
GST-tagged KRAS-G12D (2-169) and anti-GST MAb Tb Cryptate Gold (CisBio 61GSTTLB) were diluted into assay buffer (20 mM HEPES, pH 7.3, 150 mM NaCl, 5 mM MgCl2, 0.05% BSA 0.0025% NP40, 1 mM DTT) to prepare a 2.5× donor solution. 5× compound was added to the protein mixture and incubated for 1 h at RT. 2.5× acceptor solution containing SOSIcat (564-1049, Reaction Biology MSC-11-502) and GTP-DY-647P1 were then added to the donor KRAS mixture such that the final concentration of the reaction contained 5 nM GST-tagged KRAS-G12D (2-169), 20 nM SOScat, and 150 nM GTP. The reaction was monitored using at RT with the Envision multimode plate reader (Ex/Em 337/665, […]) up to 90 minutes at 5 minute intervals. To monitor KRAS-G12V Sos-mediated nucleotide exchange, 80 nM SOS was added to reaction instead of 20 nM. All other components were the same as previously described. Data was blanked to reactions without SOS1 and % inhibition was calculated such that DMSO only=0% and blank=100%. Curve fitting was done using a 4 parameter fit. Reported IC50 values were extracted at 30 min and 90 min for the KRAS-G12D and KRAS-G12V assays, respectively.
Curve fitting was done using a 4 parameter fit. NEA KRAS G12D IC50 (uM) values of selected compounds are depicted in Table 2 with compounds having a value <0.01 uM as ++++; >0.01 uM to 0.1 uM as +++; >0.1 uM to 1 uM as ++; >1 uM to 20 uM as +; and >20 uM as NA.

KRAS G12D/RAF1 = biological target: T2, KRAS G12D/RAF1 (Homo sapiens, UniProt P01116, G12D); test: Protein-protein interaction (PPI) HTRF assay KRAS G12D/RAF1; type: binding
T2 construct: His6-MBP (N, cleaved yes); made in house; host or cells: E. coli
Description: Biotinylated KRAS wt and KRAS G12DNV proteins were expressed and purified in conditions similar to those previously reported (Tran, et al., 2021) (Zhang, et al., 2020). Briefly, KRAS (1-169) proteins were expressed in E. coli at 18° C. with an upstream TEV cleavage site (ENLFYQS (SEQ ID NO: 6)) followed an Avi tag sequence ([…] (SEQ ID NO: 7)). KRAS expression constructs contained both a His6 (SEQ ID NO: 8) and maltose-binding protein (MBP) tags at the N-terminus for Ni-NTA column purification prior to overnight TEV cleavage and MBP column purification. The avi-tagged NRAS expression construct contained both a His6 tag (SEQ ID NO: 8) and SUMO cleavage sige at the N-terminus for Ni-NTA column purification followed by His-ULPi digestion overnight. All avi-tagged RAS proteins were dialyzed into buffer containing ATP, biotin, and BirA followed by purification over a second Ni-NTA column and then run over a size exclusion HiLoad™ 26/600 Superdex™ column in 20 mM HEPES, pH 7.5, 300 mM NaCl, 5 mM MgCl2, and 1 mM TCEP. Fractions containing the protein of interest were pooled, concentrated, and confirmed by intact mass spectrometry. To prepare ‘GTP’ loaded KRAS and NRAS, biotinylated KRAS or NRAS was nucleotide exchanged from GDP-bound protein to GppNHp-bound (Jena Biosciences, NU-401-50) protein in the presence of alkaline phosphatase and excess GppNHp as previously described and the resulting nucleotide content was confirmed by HPLC reverse phase analytical chromatography (Donohue, et al., 2019) (Tran, et al., 2021).
His-tagged RAF1 (52-131) was similarly expressed in E. coli at 18° C. overnight with an upstream TEV cleavage site. His-tagged RAF1 expression construct contained both a His6 (SEQ ID NO: 8) and MBP tags at the N-terminus for Ni-NTA column purification followed by MBP-tagged TEV digestion overnight. RAF1 protein samples were further purified over a MBP column followed by a Ni-NTA column and a second MBP column. The fractions containing the protein of interest were pooled, concentrated, and further purified over a HiLoad™ 16/600 Superdex™ 75 pg size exclusion column into 20 mM HEPES, pH8.0, 200 mM NaCl, 5 mM TCEP.
When RAS proteins are in the active GTP-bound conformation, they bind the effector protein RAF1 at the N-terminus Ras-binding domain (RBD, residues 52-131) (Tran, et al., 2021). Homogenous time resolved fluorescence (HTRF) was used to monitor the interaction between wt or mutant KRAS and RAF1 or wt NRAS and RAFT. Compounds were assayed in the presence of KRAS G12D/V and RAF1 versus wt KRAS to assess activity against mutant and w.t. KRAS. Similarly, compounds were then assayed in the presence of w.t. NRAS and RAF1 to assess RAS isoform selectivity. In all assay formats, His-tagged RAF1 protein was incubated with the HTRF donor, anti-6His (“6His” disclosed as SEQ ID NO: 8) Tb Cryptate gold (Cisbio 61DB10RDF), and biotinylated RAS proteins were incubated with the HTRF acceptor, streptavidin-d2 (CisBio 610SADLA). The intensity of the fluorescence signal emitted is proportional to binding between the two proteins. The donor solution was prepared by mixing 16 nM His-tagged RAF1 in protein dilution buffer with 1:100 anti-6His (“6His” disclosed as SEQ ID NO: 8) Tb cryptate in PPI-Terbium detection buffer. 16 nM biotinylated RAS protein was diluted into protein dilution buffer (50 mM Tris-HCl pH 7.5, 150 mM NaCl, 0.1 mM MgCl2, 1 mM TCEP, 0.005% Tween20) and mixed with 1:2000 Streptavidin-d2 diluted in PPI-Terbium detection buffer (CisBio 61DBTORDF). 50× compound in DMSO was mixed with 16 nM KRAS-acceptor solution and incubated for 30 minutes at room temperature. After compound pre-incubation with KRAS, the RAF1 donor solution was added to the KRAS-acceptor solution and incubated for 1 hour at room temperature. The fluorescence signal emitted was monitored at 665 nm and 615 nm using an Envision multimode plate reader. […]

T1 sequence (P01116 2-169 isoform P01116-2 G12D): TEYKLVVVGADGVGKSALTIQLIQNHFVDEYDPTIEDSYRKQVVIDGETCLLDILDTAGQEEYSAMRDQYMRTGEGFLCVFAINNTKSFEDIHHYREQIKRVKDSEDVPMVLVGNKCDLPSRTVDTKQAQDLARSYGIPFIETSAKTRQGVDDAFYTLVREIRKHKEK
T2 sequence (P01116 with tags, fused parts or gaps isoform P01116-2 G12D): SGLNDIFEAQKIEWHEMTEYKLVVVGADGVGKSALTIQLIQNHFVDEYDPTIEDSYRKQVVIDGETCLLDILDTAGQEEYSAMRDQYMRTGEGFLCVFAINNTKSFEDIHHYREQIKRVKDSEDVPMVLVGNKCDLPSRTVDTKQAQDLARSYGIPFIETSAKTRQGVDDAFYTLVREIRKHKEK

`Oc1ccc2c(c1)-c1ccccc1C21CN(c2cc(N3C[C@H]4CC[C@@H](C3)N4)nc(OC[C@@]34CCCN3C[C@H](F)C4)n2)C1` [Compound 1, 1-[6-[(1R,5S)-3,8-diazabicyclo[3.2.1]octan-3-yl]-2-[[(2R,8S)-2-fluoro-1,2,3,5,6,7-hexahydropyrrolizin-8-yl]methoxy]pyrimidin-4-yl]spiro[azetidine-3,9′-fluorene]-3′-ol] showed an IC50 ([1]; Table 2) of 0.1 to 1 µM, an IC50 ([1]; Table 4) of 0.1 to 1 µM and an IC50 (KRAS G12D/RAF1; Table 2) of 10 to 100 µM. The IC50 (KRAS G12D/RAF1; Table 4) was 10 to 100 µM.

`C[C@@]1(O)CCCN(c2nc(OC[C@@]34CCCN3C[C@H](F)C4)nc(N3CC4(CCc5sc(N)c(C#N)c54)C3)c2F)C1` [Compound 6, 2-amino-1′-[5-fluoro-2-[[(2R,8S)-2-fluoro-1,2,3,5,6,7-hexahydropyrrolizin-8-yl]methoxy]-6-[(3R)-3-hydroxy-3-methyl-1-piperidyl]pyrimidin-4-yl]spiro[5,6-dihydrocyclopenta[b]thiophene-4,3′-azetidine]-3-carbonitrile] gave an IC50 ([1]; Table 4) of 0.1 to 1 µM and an IC50 (KRAS G12D/RAF1; Table 4) of 10 to 100 µM.

`CO/N=C(\C)c1nn2c(c1Cl)CN(c1nc(OC[C@@]34CCCN3C[C@H](F)C4)nc(N3CC4(CCc5sc(N)c(C#N)c54)C3)c1C#N)CCC2` [Compound 20, 2-amino-1′-[6-[3-chloro-2-[(E)-N-methoxy-C-methyl-carbonimidoyl]-4,6,7,8-tetrahydropyrazolo[1,5-a][1,4]diazepin-5-yl]-5-cyano-2-[[(2R,8S)-2-fluoro-1,2,3,5,6,7-hexahydropyrrolizin-8-yl]methoxy]pyrimidin-4-yl]spiro[5,6-dihydrocyclopenta[b]thiophene-4,3′-azetidine]-3-carbonitrile] showed an IC50 ([1]; Table 4) of less than 0.01 µM and an IC50 (KRAS G12D/RAF1; Table 4) of 1 to 10 µM.

For `N#Cc1c(N2C[C@H]3CC[C@@H](C2)N3)nc(OCC2(CN3CCC(F)CC3)CC2)nc1N1CC2(CCc3sc(N)c(C#N)c32)C1` [Compound 28, 2-amino-1′-[5-cyano-6-(3,8-diazabicyclo[3.2.1]octan-3-yl)-2-[[1-[(4-fluoro-1-piperidyl)methyl]cyclopropyl]methoxy]pyrimidin-4-yl]spiro[5,6-dihydrocyclopenta[b]thiophene-4,3′-azetidine]-3-carbonitrile], the IC50 ([1]; Table 4) was 0.01 to 0.1 µM and the IC50 (KRAS G12D/RAF1; Table 4) was 0.1 to 1 µM.

With `N#Cc1c(N2CCC=CCC2)nc(OC[C@@]23CCCN2C[C@H](F)C3)nc1N1CC2(CCc3sc(N)c(C#N)c32)C1` [Compound 31, 2-amino-1′-[5-cyano-2-[[(2R,8S)-2-fluoro-1,2,3,5,6,7-hexahydropyrrolizin-8-yl]methoxy]-6-(2,3,6,7-tetrahydroazepin-1-yl)pyrimidin-4-yl]spiro[5,6-dihydrocyclopenta[b]thiophene-4,3′-azetidine]-3-carbonitrile] the IC50 ([1]; Table 4) was 0.01 to 0.1 µM and the IC50 (KRAS G12D/RAF1; Table 4) was 1 to 10 µM.

Compound `CN(C)C(=O)c1nn2c(c1Cl)CN(c1nc(OC[C@@]34CCCN3C[C@H](F)C4)nc(N3CC4(C3)c3ccccc3CCC4(F)F)c1C#N)CCC2` [Compound 35, 3-chloro-5-[5-cyano-6-(2′,2′-difluorospiro[azetidine-3,1′-tetralin]-1-yl)-2-[[(2R,8S)-2-fluoro-1,2,3,5,6,7-hexahydropyrrolizin-8-yl]methoxy]pyrimidin-4-yl]-N,N-dimethyl-4,6,7,8-tetrahydropyrazolo[1,5-a][1,4]diazepine-2-carboxamide] has an IC50 ([1]; Table 4) of 1 to 20 µM and an IC50 (KRAS G12D/RAF1; Table 4) greater than 100 µM.

In the case of `CN(C)C(=O)c1nn2c(c1Cl)CN(c1nc(OC[C@@]34CCCN3C[C@H](F)C4)nc(N3CC4(C3)C(=O)CCc3ccccc34)c1C#N)CCC2` [Compound 36, 3-chloro-5-[5-cyano-2-[[(2R,8S)-2-fluoro-1,2,3,5,6,7-hexahydropyrrolizin-8-yl]methoxy]-6-(2′-oxospiro[azetidine-3,1′-tetralin]-1-yl)pyrimidin-4-yl]-N,N-dimethyl-4,6,7,8-tetrahydropyrazolo[1,5-a][1,4]diazepine-2-carboxamide], the IC50 ([1]; Table 4) is reported as 1 to 20 µM and the IC50 (KRAS G12D/RAF1; Table 4) is reported as greater than 100 µM.

Work on `N#Cc1c(N2C[C@H]3CC[C@@H](C2)N3)nc(OCc2n[nH]cc2C(F)F)nc1N1CC2(CCc3sc(N)c(C#N)c32)C1` [Compound 109, 2-amino-1′-[5-cyano-6-[(1R,5S)-3,8-diazabicyclo[3.2.1]octan-3-yl]-2-[[4-(difluoromethyl)-1H-pyrazol-3-yl]methoxy]pyrimidin-4-yl]spiro[5,6-dihydrocyclopenta[b]thiophene-4,3′-azetidine]-3-carbonitrile] yielded an IC50 ([1]; Table 4) of 0.01 to 0.1 µM.

For `N#Cc1c(N2CCCOCC2)nc(OC[C@@]23CCCN2C[C@H](F)C3)nc1N1CC2(CCc3sc(N)c(C#N)c32)C1` [Compound 110, 2-amino-1′-[5-cyano-2-[[(2R,8S)-2-fluoro-1,2,3,5,6,7-hexahydropyrrolizin-8-yl]methoxy]-6-(1,4-oxazepan-4-yl)pyrimidin-4-yl]spiro[5,6-dihydrocyclopenta[b]thiophene-4,3′-azetidine]-3-carbonitrile], the IC50 ([1]; Table 4) was 0.01 to 0.1 µM.

Work on `N#Cc1c(N2CCSc3ncccc3C2)nc(OC[C@@]23CCCN2C[C@H](F)C3)nc1N1CC2(CCc3sc(N)c(C#N)c32)C1` [Compound 111, 2-amino-1′-[5-cyano-6-(3,5-dihydro-2H-pyrido[3,2-f][1,4]thiazepin-4-yl)-2-[[(2R,8S)-2-fluoro-1,2,3,5,6,7-hexahydropyrrolizin-8-yl]methoxy]pyrimidin-4-yl]spiro[5,6-dihydrocyclopenta[b]thiophene-4,3′-azetidine]-3-carbonitrile] yielded an IC50 ([1]; Table 4) of 0.01 to 0.1 µM.

Reference: patent US12145947B2, “Pyrimidine based modulators and uses thereof” (Quanta Therapeutics, Inc., priority 2022, dated 2024)
